Where “and” joins values, the source holds several entries; their conditions need not be identical. Equal values may be shown once.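 Test compounds were applied to cells in 96-well plates for 48 hours at 5 doses. The concentration for 50% growth inhibition is given as GI50. At the TGI there is no net growth.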
Test system: OVCAR-8 ovarian
Experiment: NCI-60 cell line screen, 48 h

**Q.** For `O=c1c(Cl)c(Cl)cnn1-c1ccccc1`, which TGI is on record?
**A.** Its TGI is 6.05 µM and 11.5 µM.

**Q.** Which TGI does the source give for `O=C(O)Cc1c[nH]c2ccc(F)cc12` here?
**A.** The TGI was greater than 100 µM.

**Q.** What does the source list for `CC[n+]1ccc2c(c1)C(=O)c1nccc3c1c-2nc1ccccc13`?
**A.** GI50: 1.04 µM; TGI: 6.47 µM

**Q.** For `OC(c1cccc(C(F)(F)F)c1)c1cnccc1NC1CCCCCC1` (configuration not stated), which GI50 is on record?
**A.** Its GI50 is 2.1 µM.

**Q.** What about the TGI of the same molecule?
**A.** The TGI was 4.59 µM.

**Q.** How did the GI50 turn out when `N#Cc1c(O)c2c(c(O)c1C#N)C(=O)c1ccccc1C2=O` was run?
**A.** The GI50 was 2.33 µM.

**Q.** What about the TGI of the same molecule?
**A.** Its TGI is 6.48 µM.

**Q.** Which GI50 does the source give for `O=C1CSC(N2CCN(c3cccc(Cl)c3)CC2)=N1` here?
**A.** The GI50 was greater than 100 µM.

**Q.** And the TGI?
**A.** The TGI was greater than 100 µM.

**Q.** What does the source list for `CN(C)CCNc1nc2ccccc2c2[nH]c3ccccc3c12`?
**A.** GI50: 0.535 µM; TGI: 9.93 µM

**Q.** Which GI50 does the source give for `Cc1c(N2C(=O)/C(=C\c3ccccc3O)N=C2c2ccccc2)c(=O)n(-c2ccccc2)n1C` here?
**A.** The GI50 was 63.2 µM.

**Q.** And the TGI?
**A.** The TGI was greater than 100 µM.

**Q.** Which results are given for `CNC(=O)c1cc(Oc2ccc3c(c2)sc2nc(-c4ccc(N)cc4)cn23)ccn1`?
**A.** GI50: 0.39 µM; TGI: > 100 µM

**Q.** `CN(C)S(=O)(=O)Nc1ccccn1` was tested. Which TGI did it give?
**A.** The TGI was greater than 100 µM.

Test system: SK-OV-3 ovarian
Experiment: NCI-60 cell line screen, 48 h

**Q.** With `O=c1c(Cl)c(Cl)cnn1-c1ccccc1` as the molecule, how does the GI50 read?
**A.** The GI50 was 8.36 µM and 3.44 µM.

**Q.** And the TGI?
**A.** Its TGI is 21.2 µM and 10.6 µM.

**Q.** With `O=C(O)Cc1c[nH]c2ccc(F)cc12` as the molecule, how does the TGI read?
**A.** The TGI was greater than 100 µM.

**Q.** With `CC[n+]1ccc2c(c1)C(=O)c1nccc3c1c-2nc1ccccc13` as the molecule, how does the GI50 read?
**A.** The GI50 was 0.799 µM.

**Q.** And the TGI?
**A.** The TGI was 4.83 µM.

**Q.** Which results are given for `OC(c1cccc(C(F)(F)F)c1)c1cnccc1NC1CCCCCC1` (configuration not stated)?
**A.** GI50: 7 µM; TGI: 20 µM

**Q.** What does the source list for `N#Cc1c(O)c2c(c(O)c1C#N)C(=O)c1ccccc1C2=O`?
**A.** GI50: 3.99 µM; TGI: > 34.9 µM

**Q.** Which results are given for `O=C1CSC(N2CCN(c3cccc(Cl)c3)CC2)=N1`?
**A.** GI50: > 100 µM; TGI: > 100 µM

**Q.** Which GI50 does the source give for `CN(C)CCNc1nc2ccccc2c2[nH]c3ccccc3c12` here?
**A.** The GI50 was 1.72 µM.

**Q.** What about the TGI of the same molecule?
**A.** The TGI was 13.9 µM.

**Q.** What does the source list for `Cc1c(N2C(=O)/C(=C\c3ccccc3O)N=C2c2ccccc2)c(=O)n(-c2ccccc2)n1C`?
**A.** GI50: 57.3 µM; TGI: > 100 µM

**Q.** For `CNC(=O)c1cc(Oc2ccc3c(c2)sc2nc(-c4ccc(N)cc4)cn23)ccn1`, which GI50 is on record?
**A.** Its GI50 is 0.47 µM.

**Q.** What about the TGI of the same molecule?
**A.** The TGI was greater than 100 µM.

**Q.** With `CN(C)S(=O)(=O)Nc1ccccn1` as the molecule, how does the TGI read?
**A.** Its TGI is greater than 100 µM.

Test system: SNB-19 CNS
Experiment: NCI-60 cell line screen, 48 h

**Q.** Which results are given for `O=c1c(Cl)c(Cl)cnn1-c1ccccc1`?
**A.** GI50: 4.93 µM and > 23.2 µM; TGI: 13.7 µM and > 41.7 µM

**Q.** Which TGI does the source give for `O=C(O)Cc1c[nH]c2ccc(F)cc12` here?
**A.** Its TGI is greater than 100 µM.

**Q.** Which GI50 does the source give for `CC[n+]1ccc2c(c1)C(=O)c1nccc3c1c-2nc1ccccc13` here?
**A.** Its GI50 is 0.212 µM.

**Q.** What about the TGI of the same molecule?
**A.** The TGI was 0.856 µM.

**Q.** Which GI50 does the source give for `OC(c1cccc(C(F)(F)F)c1)c1cnccc1NC1CCCCCC1` (configuration not stated) here?
**A.** The GI50 was 1.83 µM.

**Q.** And the TGI?
**A.** Its TGI is 4.08 µM.

**Q.** With `N#Cc1c(O)c2c(c(O)c1C#N)C(=O)c1ccccc1C2=O` as the molecule, how does the GI50 read?
**A.** The GI50 was 2.86 µM.

**Q.** And the TGI?
**A.** Its TGI is 22.2 µM.

**Q.** Which results are given for `O=C1CSC(N2CCN(c3cccc(Cl)c3)CC2)=N1`?
**A.** GI50: > 100 µM; TGI: > 100 µM

**Q.** Which GI50 does the source give for `CN(C)CCNc1nc2ccccc2c2[nH]c3ccccc3c12` here?
**A.** The GI50 was 1.04 µM.

**Q.** And the TGI?
**A.** The TGI was 8 µM.

**Q.** What does the source list for `Cc1c(N2C(=O)/C(=C\c3ccccc3O)N=C2c2ccccc2)c(=O)n(-c2ccccc2)n1C`?
**A.** GI50: 54.4 µM; TGI: > 100 µM

**Q.** With `CNC(=O)c1cc(Oc2ccc3c(c2)sc2nc(-c4ccc(N)cc4)cn23)ccn1` as the molecule, how does the GI50 read?
**A.** The GI50 was 0.405 µM.

**Q.** What about the TGI of the same molecule?
**A.** The TGI was greater than 100 µM.

**Q.** `CN(C)S(=O)(=O)Nc1ccccn1` was tested. Which TGI did it give?
**A.** Its TGI is greater than 100 µM.

Test system: SNB-75 CNS
Experiment: NCI-60 cell line screen, 48 h

**Q.** `O=c1c(Cl)c(Cl)cnn1-c1ccccc1` was tested. Which TGI did it give?
**A.** The TGI was 5.71 µM and 29.7 µM.

**Q.** How did the TGI turn out when `O=C(O)Cc1c[nH]c2ccc(F)cc12` was run?
**A.** The TGI was greater than 100 µM.

**Q.** What does the source list for `CC[n+]1ccc2c(c1)C(=O)c1nccc3c1c-2nc1ccccc13`?
**A.** GI50: 0.678 µM; TGI: 2.56 µM

**Q.** Which GI50 does the source give for `OC(c1cccc(C(F)(F)F)c1)c1cnccc1NC1CCCCCC1` (configuration not stated) here?
**A.** Its GI50 is 1.77 µM.

**Q.** What about the TGI of the same molecule?
**A.** The TGI was 8.25 µM.

**Q.** How did the GI50 turn out when `N#Cc1c(O)c2c(c(O)c1C#N)C(=O)c1ccccc1C2=O` was run?
**A.** Its GI50 is 1.37 µM.

**Q.** What about the TGI of the same molecule?
**A.** The TGI was 3.94 µM.

**Q.** Which GI50 does the source give for `O=C1CSC(N2CCN(c3cccc(Cl)c3)CC2)=N1` here?
**A.** Its GI50 is 84.9 µM.

**Q.** And the TGI?
**A.** Its TGI is greater than 100 µM.

**Q.** With `CN(C)CCNc1nc2ccccc2c2[nH]c3ccccc3c12` as the molecule, how does the GI50 read?
**A.** The GI50 was 1.22 µM.

**Q.** What about the TGI of the same molecule?
**A.** Its TGI is 3.2 µM.

**Q.** With `Cc1c(N2C(=O)/C(=C\c3ccccc3O)N=C2c2ccccc2)c(=O)n(-c2ccccc2)n1C` as the molecule, how does the GI50 read?
**A.** Its GI50 is 15.7 µM.

**Q.** What about the TGI of the same molecule?
**A.** Its TGI is 40.3 µM.

**Q.** Which results are given for `CNC(=O)c1cc(Oc2ccc3c(c2)sc2nc(-c4ccc(N)cc4)cn23)ccn1`?
**A.** GI50: 0.286 µM; TGI: > 100 µM

**Q.** With `CN(C)S(=O)(=O)Nc1ccccn1` as the molecule, how does the TGI read?
**A.** The TGI was greater than 100 µM.

Test system: U251 CNS
Experiment: NCI-60 cell line screen, 48 h

**Q.** How did the TGI turn out when `O=c1c(Cl)c(Cl)cnn1-c1ccccc1` was run?
**A.** Its TGI is 3.37 µM and 7.42 µM.

**Q.** For `O=C(O)Cc1c[nH]c2ccc(F)cc12`, which TGI is on record?
**A.** The TGI was greater than 100 µM.

**Q.** With `CC[n+]1ccc2c(c1)C(=O)c1nccc3c1c-2nc1ccccc13` as the molecule, how does the GI50 read?
**A.** The GI50 was 0.35 µM.

**Q.** What about the TGI of the same molecule?
**A.** The TGI was 1.28 µM.

**Q.** With `OC(c1cccc(C(F)(F)F)c1)c1cnccc1NC1CCCCCC1` (configuration not stated) as the molecule, how does the GI50 read?
**A.** The GI50 was 1.83 µM.

**Q.** And the TGI?
**A.** Its TGI is 3.43 µM.

**Q.** `N#Cc1c(O)c2c(c(O)c1C#N)C(=O)c1ccccc1C2=O` was tested. Which GI50 did it give?
**A.** The GI50 was 1.92 µM.

**Q.** What about the TGI of the same molecule?
**A.** Its TGI is 5.54 µM.

**Q.** For `O=C1CSC(N2CCN(c3cccc(Cl)c3)CC2)=N1`, which GI50 is on record?
**A.** The GI50 was greater than 100 µM.

**Q.** What about the TGI of the same molecule?
**A.** The TGI was greater than 100 µM.

**Q.** Which GI50 does the source give for `CN(C)CCNc1nc2ccccc2c2[nH]c3ccccc3c12` here?
**A.** The GI50 was 0.386 µM.

**Q.** What about the TGI of the same molecule?
**A.** The TGI was 2.04 µM.

**Q.** How did the GI50 turn out when `Cc1c(N2C(=O)/C(=C\c3ccccc3O)N=C2c2ccccc2)c(=O)n(-c2ccccc2)n1C` was run?
**A.** Its GI50 is 40.2 µM.

**Q.** And the TGI?
**A.** The TGI was greater than 100 µM.

**Q.** Which GI50 does the source give for `CNC(=O)c1cc(Oc2ccc3c(c2)sc2nc(-c4ccc(N)cc4)cn23)ccn1` here?
**A.** Its GI50 is 0.194 µM.

**Q.** And the TGI?
**A.** The TGI was greater than 100 µM.

**Q.** For `CN(C)S(=O)(=O)Nc1ccccn1`, which TGI is on record?
**A.** The TGI was greater than 100 µM.
